Laboratory results published in article PMC10880116, “Identification of potential anti-inflammatory components in Moutan Cortex by bio-affinity ultrafiltration coupled with ultra-performance liquid chromatography mass spectrometry” (Frontiers in Pharmacology, 2024).

Assays:
RAW264.7 cells = experiment: Cell viability assay (MTT); assay type: cell-based, mouse; conditions: 12 h
Method: RAW264.7 cells originated from mouse macrophage cell line were purchased from the American Type Culture Collection. DMEM medium containing 5% fetal bovine serum and 1% Penicillin G Streptomycin was used to culture the cells under 37°C in a humidified atmosphere of 5% CO2.
Then DEME with 20% MTT solution was added, followed by a 37°C incubation for extra 4 h. After the supernatant was removed, DMSO was added to dissolve the insoluble formazan product. The optical density was measured by a microplate reader at 490 nm. In this experiment, the formula used to calculate cell viability was as follows: Cell viability %=ODexperimental group– ODblank group/ODcontrol group– ODblank group×100%

COX-2 [1] = target: T1, COX-2 (Homo sapiens, UniProt P35354); experiment: COX-2 inhibitory activity (COX-2 Inhibitor Screening Kit, fluorescence)
T1 sequence (P35354 18-604): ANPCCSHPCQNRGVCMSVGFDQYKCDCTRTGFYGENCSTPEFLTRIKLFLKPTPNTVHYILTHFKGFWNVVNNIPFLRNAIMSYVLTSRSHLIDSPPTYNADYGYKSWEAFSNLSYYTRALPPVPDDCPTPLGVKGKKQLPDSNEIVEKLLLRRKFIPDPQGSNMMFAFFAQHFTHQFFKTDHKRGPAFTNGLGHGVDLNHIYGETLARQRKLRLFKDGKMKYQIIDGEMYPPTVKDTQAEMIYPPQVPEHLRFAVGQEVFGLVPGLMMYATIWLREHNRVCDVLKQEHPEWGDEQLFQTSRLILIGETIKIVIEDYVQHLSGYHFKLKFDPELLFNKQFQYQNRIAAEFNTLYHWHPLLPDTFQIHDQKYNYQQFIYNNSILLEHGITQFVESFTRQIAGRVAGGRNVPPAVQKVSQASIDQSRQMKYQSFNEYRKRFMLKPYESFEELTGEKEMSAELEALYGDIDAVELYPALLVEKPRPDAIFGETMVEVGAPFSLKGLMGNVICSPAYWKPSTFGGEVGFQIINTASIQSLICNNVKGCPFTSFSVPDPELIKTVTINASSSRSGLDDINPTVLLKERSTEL
Method: In this experiment, the inhibitory effect was determined by using COX-2 Inhibitor Screening Kits. A 96-well black plate was employed, where COX-2 cofactor working solution (5 μL), COX-2 assay buffer (75 μL), test solution (5 μL), and COX-2 working solution (5 uL) were mixed and incubated for 10 min at 37°C in the dark. Then 5 μL of probe solution, together with 5 μL of COX-2 substrate solution, was added immediately. After a 37°C incubation in the dark for another 5 min, the fluorescence value was determined at an excitation wavelength of 560 nm and emission wavelength of 590 nm. […] Besides, COX-2 Assay Buffer was used in the blank control group to replace COX-2 working solution. MC extract or potential inhibitors were dissolved with DMSO as the test solution in the sample groups.
Where, F1, F2, and F3 respectively indicate the fluorescence value of the three groups—100% enzyme activity control group, sample group and blank control group.

COX-2 [2] = target: T1, COX-2; conditions: 20 μM, mixture of positive and negative control, affinity ultrafiltration
Method: An experimental group and inactivated enzyme group were set up in this study for comparison. 40 μL of 100 mg/mL MC extract as well as 280 μL of COX-2 (100 U/mL) was transferred to EP tube in the experimental group, in contrast to the control group where 280 μL of inactivated COX-2 (boiled in the water bath for 30 min) was used as the substitute of the activated enzyme. The tubes from both groups were incubated at 37°C in the dark for 40 min, aiming to create an optimal condition under which the potentially suitable ligands would completely combined with the enzyme. A centrifugal filter was employed for ultrafiltration at 15000 × g for 15 min. Afterwards, 300 μL of PBS was added to the samples, and the unbound small molecules were removed by 15000 × g centrifugation for 15 min. […]
UPLC-Q-Exactive-Orbitrap-MS was performed to analyze the compounds in the filtrate using Thermo Scientific Orbitrap Fusion Tribrid Mass Spectrometer (Thermo Fisher Scientific, United States) and Ultimate 3,000 Ultra-performance liquid chromatograph, at the same time with Waters ACQUITY UPLC BEH RP18 (2.1 mm × 100 mm, 1.7 μm) employed for chromatographic analysis. […] The measurements were read at the detection wavelength of 254 nm. […] By comparing peak areas of two groups, specific ligands binding to COX-2 were determined. […]

SMILES | Concentration exhibiting no cytotoxicity against RAW264.7 cells (RAW264.7 cells; MTT) | IC50 (COX-2 [1]) | Response value (HPLC peak) in active enzyme group compared with inactivated enzyme control group (COX-2 [2]) | Concentration exhibiting no cytotoxicity against RAW264.7 cells (RAW264.7 cells; mouse)
C[C@@]12C[C@@]3(O)O[C@@H](O1)[C@]1(COC(=O)c4ccccc4)[C@H]3C[C@@]12O[C@@H]1O[C@H](COC(=O)c2cc(O)c(O)c(O)c2)[C@@H](O)[C@H](O)[C@H]1O [Galloylpaeoniflorin] | ≤ 100 µM | 6.68 ± 1.29 µM |  | 
O=C(O)c1cc(O)c(O)c(O)c1 [Gallic acid] | ≤ 250 µM | 1520 µM |  | 
O=C(OC[C@H]1O[C@@H](OC(=O)c2cc(O)c(O)c(O)c2)[C@H](OC(=O)c2cc(O)c(O)c(O)c2)[C@@H](OC(=O)c2cc(O)c(O)c(O)c2)[C@@H]1O)c1cc(O)c(O)c(O)c1 [TGG, 1,2,3,6-Tetra-O-galloyl-β-D-glucose] | ≤ 20 µM | 1.04 µM |  | 
COC(=O)c1cc(O)c(O)c(O)c1 [Methyl gallate] | ≤ 10 µM | 12.1 µM |  | 
Nc1ncnc2c1ncn2[C@@H]1O[C@H](CO)[C@@H](O)[C@H]1O [adenosine, Adenosine] |  |  | no evident change | 
O=C(OC[C@H]1O[C@@H](OC(=O)c2cc(O)c(O)c(O)c2)[C@H](OC(=O)c2cc(O)c(O)c(O)c2)[C@@H](OC(=O)c2cc(O)c(O)c(O)c2)[C@@H]1OC(=O)c1cc(O)c(O)c(O)c1)c1cc(O)c(O)c(O)c1 [PGG, 1,2,3,4,6-Penta-O-galloyl-β-D-glucopyranose] |  | 220 µM |  | ≤ 150 µM
